These results are taken from patent publication US20040028714A1, “Composition having insect repellent characteristics” (priority 2000, published 2004).

Common to all, as to assay type: in vivo
The subject of assay [1] is Casemaking Clothes Moths (Tinea pellionella). In words: Adult clothes moth repellency on treated woolen cloth (Example 5). Particulars: fabric soaked in 20 g/L in ethanol, 2 days after moth introduction; for Moths Present, Treated Section, Total (%) / Moths Present, Untreated Section, Total (%): share of moths found in the two boxes; for The Number of Moths Present, Treated Section / The Number of Moths Present, Untreated Section: single replicates (n = 50); for The Number of Moths Present, Treated Section, Total / The Number of Moths Present, Untreated Section, Total: total of 4 replicates. As for the experimental part:
The effectiveness of compound 2 (example 1) to reduce the presence of cloth moths on woolen cloth was determined and was directly compared to the repellency of the well known moth repellents Citronellol and Farnesol.
The study was conducted in an air conditioned laboratory at a temperature of 22°±2° C. under a normal day/night cycle, using Casemaking Clothes Moths (Tinea pellionella) of mixed sex and age. The study is conducted over a 5 days period and the repellent effectiveness was assessed as follows:
Adults—2 days after insect introduction
A 10 cm×10 cm square of black woolen fabric free of bactericide) was soaked in a solution of the candidate repellent in ethanol at 20 g/L, squeezed and allowed to dry. The woollen square was placed in a small box (5 cm×10 cm×10 cm) which was open at one end to allow entry of adult clothes moth.
A similar square of fabric treated with ethanol (control) was placed in another box of the same size.
These two boxes were placed in an aquarium and 50 mixed sex adult moths were added. These were provided with food and water and left for 5 days.
At the end of 2 days the number of adult moths in each box was counted.
The above was repeated 3 times to provide 4 replicates.

In assay [2] the test system is German cockroaches (Blatella Germanica). In words: Cockroach repellency in tray with half-treated vinyl, compared with DEET and N-methyl-neodecanamide (Example 3). Particulars: cockroaches, 20 mg/m^2 on vinyl. The protocol: The effectiveness of compound 2 (example 1) as an insect repellent was determined using German cockroaches exposed to a formica surface partially treated/partially un-treated, and was directly compared to the repellency of the well known insect repellents DEET (N,N-diethyl-meta-toluamide) and N-methyl-neodecanamide. The study was conducted in an air conditioned laboratory at a temperature of 22°±2° C. under a normal day/night cycle, using German cockroaches (Blatella Germanica) of mixed sex and age. The study was conducted over a 7 days period and the repellent effectiveness was assessed 1, 3, 5 and 7 days after cockroach introduction. Each tray used in the study consisted of a melamine square tray of sides 1.8m×1.8m and 20 cm high walls. The upper part of the wall was provided with electrical strip, which prevented cockroaches escaping. A square of vinyl 90 cm×180 cm was treated with the test compound at 20 mg/m^2. This was achieved by soaking a paper wipe (Rag on a Roll, ca. 20 cm×20 cm) in a solution of the test compound in ethanol, squeezing out the excess liquid and wiping over the surface to give the required coverage. This was checked by weighing the cloth after application. The surface was allowed to dry. The treated vinyl square was placed in one half of the tray. A similar untreated square was placed in the other half of the tray. This square was treated with ethanol alone. Two sheets of formica (30 cm×30 cm) were placed at one corner of each tray, one on the treated surface and one on the untreated surface. This acted as a cockroach harbourage. The formica sheet to be used in the treated section was treated at the same rate as the treated formica. The formica was placed on two 1 cm high bottle tops to allow cockroaches access under the formica. 50 German cockroaches were added (15 adults and 35 nymphs) to the middle of the tray. No food and water was supplied for these cockroaches. At 1, 2, 3 and 7 days after cockroach introduction the number of cockroaches under each harbourage was counted. After each count the harbourage position was change to avoid the possibility of habituation to one location, the harbourages were replaced and new cockroaches were added to replace any dead cockroaches. The above was repeated 3 times to provide a total of 4 replicates.

In assay [3] the test system is Black Ants (Ochetellus sp). In words: Ant repellency on half-treated formica (Example 4). The conditions noted are these: ants, 20 mg/m^2 on formica. As for the experimental part:
The effectiveness of compound 2 (example 1) as an insect repellent was determined using ants exposed to a formica surface partially treated/partially untreated with compound 2, and was directly compared to the repellency of the well known insect repellents Farnesol and Dihydrofarnesal.
The study was conducted in an air conditioned laboratory at a temperature of 22°±2° C. under a normal day/night cycle, using Black Ants (Ochetellus sp) of mixed sex and age. The study ws conducted over a 3 day period and the repellent effectiveness assessed 1, 2 and 3 days after ant introduction.
One half of a rectangle of formica 40 cm×30 cm was treated at 20 mg/m^2 with the test compounds. This was achieved by soaking a paper wipe (Rag On A Roll approximately 20 cm×20 cm) in a solution of the test compound in ethanol, squeezing out the excess liquid and wiping over the surface to give the required coverage. This was checked by weighing the cloth after application. The surface was allowed to dry. The other half was wiped with ethanol alone (untreated surface).
The treated formica rectangle was placed on the bench and a glass ring (diameter 20 cm) was placed on the rectangle. This had been treated with fluon to prevent ant escape.
A small plastic container 2 cm in diameter was placed on the formica, one on the treated surface and one on the untreated surface. The plastic container placed on the treated surface had repellent applied in the same way as the treated formica. The plastic container on the untreated surface was wiped with ethanol.
24 hours after treatment (1 day) 20 ants were added to the centre of the formica. No food and water was supplied for these ants. 2 hours after this the number of ants on the treated and untreated surfaces was counted.
The above was repeated 3 times to provide a total of 4 replicates.
The above was repeated at 2 days and 3 days. New ants were used at each time period.

The structures appear in SMILES notation. Several values for one entry are separate records, joined by “and”; a condition that tells them apart may be missing. Equal values may be shown once.

Consider `CC(C)=CCCC(C)CCO` (centres unmarked) [Citronellol], for which, in assay [1], the “Moths Present, Treated Section, Total (%)” value is listed as “(23.9%)”; the “Moths Present, Untreated Section, Total (%)” value is given as “(76.1%)”; the “The Number of Moths Present, Treated Section” value is 7 and 0 and 5 and 14; the “The Number of Moths Present, Untreated Section” value is 20 and 12 and 26 and 25. For the same molecule, in assay [1], the “The Number of Moths Present, Treated Section, Total” value stood at 26 and the “The Number of Moths Present, Untreated Section, Total” value came out at 83.
As for `CCN(CC)C(=O)c1cccc(C)c1` [DEET, N,N-diethyl-meta-toluamide, reference compound], the “Percentage Dead” value in assay [2] (1 day after treatment) is listed as 0.5%; in assay [2] (2 days after treatment) it was 1.5%; in assay [2] (3 days after treatment), 0.5%; in assay [2] (7 days after treatment) it was 1.0%. In addition, the “Percentage Present, Treated Section” value is on record as 3.0% in assay [2] (1 day after treatment), 2.5% in assay [2] (2 days after treatment), 27.5% in assay [2] (3 days after treatment) and 55.0% in assay [2] (7 days after treatment). For the same molecule, the “Percentage Present, Untreated Section” value in assay [2] (1 day after treatment) is on record as 96.5%; in assay [2] (2 days after treatment), 96.0%; in assay [2] (3 days after treatment), 72.0%; in assay [2] (7 days after treatment), 44.0%.
Turning to `CC(C)=CCCC(C)=CCCC(C)=CCO` [Farnesol, 3,7,11-Trimethyl-2,6,10-dodecatrien-1-ol], in assay [3] (1 day after treatment), the “Percentage Dead” value was 0%; the “Percentage Present, Treated Section” value was determined as 20.0%; the “Percentage Present, Untreated Section” value is 80.0%. For the same molecule, in assay [3] (2 days after treatment), the “Percentage Dead” value was determined as 0%; the “Percentage Present, Treated Section” value stood at 10.0%; the “Percentage Present, Untreated Section” value amounted to 90.0%. Also, in assay [3] (3 days after treatment), the “Percentage Dead” value was 0%; the “Percentage Present, Treated Section” value is reported as 20.0%; the “Percentage Present, Untreated Section” value is given as 80.0%. Moreover, in assay [3] (average of days 1, 2 and 3), the “Percentage Dead, Average” value came out at 0% and the “Percentage Present, Untreated Section, Average” value is 83.3%. Also, in assay [1], the “Moths Present, Treated Section, Total (%)” value is recorded as “(26.0%)”; the “Moths Present, Untreated Section, Total (%)” value is on record as “(74.0%)”; the “The Number of Moths Present, Treated Section” value was 9 (2×) and 4 and 5; the “The Number of Moths Present, Untreated Section” value is 18 and 19 (2×) and 21. Further, in assay [1], the “The Number of Moths Present, Treated Section, Total” value is on record as 27 and the “The Number of Moths Present, Untreated Section, Total” value worked out at 77.
